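Method: 48-hour compound exposure of cells in 96-well plates, five concentrations, linear interpolation of endpoints. Definition used: TGI = concentration required for complete inhibition of growth.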
How the values were obtained:
Assay in all cases: DTP human tumour cell line panel, 48 h
[1] = system: A498 renal
[2] = system: SNB-19 CNS
[3] = system: M14 melanoma
[4] = system: SF-295 CNS
[5] = system: BT-549 breast
[6] = system: DU-145 prostate
[7] = system: TK-10 renal
[8] = system: ACHN renal
[9] = system: OVCAR-3 ovarian
[10] = system: OVCAR-8 ovarian
[11] = system: UACC-62 melanoma
[12] = system: U251 CNS
[13] = system: COLO 205 colon
[14] = system: EKVX NSCLC
[15] = system: RPMI-8226 leukemia
[16] = system: RXF 393 renal
[17] = system: UO-31 renal
[18] = system: SF-268 CNS
[19] = system: HCT-15 colon
[20] = system: NCI-H522 lung
[21] = system: SK-MEL-2 melanoma
[22] = system: HCT-116 colon
[23] = system: HOP-62 NSCLC
[24] = system: OVCAR-5 ovarian
[25] = system: HCC-2998 colon
[26] = system: CCRF-CEM leukemia
[27] = system: UACC-257 melanoma
[28] = system: KM12 colon
[29] = system: HT29 colon
[30] = system: IGROV1 ovarian
[31] = system: SNB-75 CNS
[32] = system: MCF7 breast
[33] = system: OVCAR-4 ovarian
[34] = system: 786-0 renal
[35] = system: MALME-3M melanoma
[36] = system: SK-MEL-28 melanoma
[37] = system: SN12C renal
[38] = system: PC-3 prostate
[39] = system: A549 NSCLC
[40] = system: K-562 leukemia
[41] = system: NCI-H23 lung
[42] = system: NCI-H226 lung
[43] = system: HOP-92 NSCLC
[44] = system: HS 578T breast
[45] = system: CAKI-1 renal
[46] = system: T-47D breast
[47] = system: HL-60(TB) leukemia
[48] = system: MOLT-4 leukemia
[49] = system: SK-MEL-5 melanoma
[50] = system: SF-539 CNS
[51] = system: MDA-N
[52] = system: LOX IMVI melanoma
[53] = system: MDA-MB-231 breast
[54] = system: SR leukemia
[55] = system: SK-OV-3 ovarian
[56] = system: NCI-H460 lung
[57] = system: NCI/ADR-RES ovarian
[58] = system: MDA-MB-435
[59] = system: SW-620 colon

## COc1ccc(N=c2ssc(C(=S)Nc3ccc(OC)cc3)c2S)cc1
[1]
  TGI: > 100 µM
[2]
  TGI: > 100 µM
[3]
  TGI: > 100 µM
[4]
  TGI: > 100 µM
[5]
  TGI: > 100 µM
[6]
  TGI: > 100 µM
[7]
  TGI: > 100 µM
[8]
  TGI: > 100 µM
[9]
  TGI: > 100 µM
[10]
  TGI: > 100 µM
[11]
  TGI: > 100 µM
[12]
  TGI: > 100 µM
[13]
  TGI: > 100 µM
[14]
  TGI: > 100 µM
[15]
  TGI: > 100 µM
[16]
  TGI: > 100 µM
[17]
  TGI: > 100 µM
[18]
  TGI: > 100 µM
[19]
  TGI: > 100 µM
[20]
  TGI: > 100 µM
[21]
  TGI: > 100 µM
[22]
  TGI: > 100 µM
[23]
  TGI: > 100 µM
[24]
  TGI: > 100 µM
[25]
  TGI: 84.6 µM
[26]
  TGI: > 100 µM
[27]
  TGI: > 100 µM
[28]
  TGI: > 100 µM
[29]
  TGI: > 100 µM
[30]
  TGI: > 100 µM
[31]
  TGI: > 100 µM
[32]
  TGI: > 100 µM
[33]
  TGI: > 100 µM
[34]
  TGI: > 100 µM
[35]
  TGI: > 100 µM
[36]
  TGI: > 100 µM
[37]
  TGI: > 100 µM
[38]
  TGI: > 100 µM
[39]
  TGI: > 100 µM
[40]
  TGI: > 100 µM
[41]
  TGI: > 100 µM
[42]
  TGI: > 100 µM
[43]
  TGI: > 100 µM
[44]
  TGI: > 100 µM
[45]
  TGI: > 100 µM
[46]
  TGI: > 100 µM
[47]
  TGI: > 100 µM
[48]
  TGI: > 100 µM
[49]
  TGI: > 100 µM
[50]
  TGI: > 100 µM
[51]
  TGI: > 100 µM
[52]
  TGI: > 100 µM
[53]
  TGI: > 100 µM
[54]
  TGI: > 100 µM
[55]
  TGI: > 100 µM
[56]
  TGI: > 100 µM
[57]
  TGI: > 100 µM
[58]
  TGI: > 100 µM
[59]
  TGI: > 100 µM

From PubChem BioAssay (NCI)
